Source: patent publication USRE38117E1, “Trioxane dimer compound having antiproliferative and antitumor activities” (Hauser, Inc., priority 1995, dated 2003)

How the values were obtained:
[1] = test system: U251; assay: NCI 60 cell line screen (SRB), CNS Cancer; format: cell-based
[2] = test system: DU-145; assay: NCI 60 cell line screen (SRB), Prostate Cancer; format: cell-based; conditions: DU-145 (Prostate Cancer)
[3] = Stability at room temperature; format: physicochemical; conditions: crystalline solid
[4] = test system: 60 cell line panel; conditions: cell line panels consisting of 60 lines; cited from earlier work
[5] = test system: Ehrlich ascites tumor (EAT) cells; conditions: MTT assay, Woerdenbag et al. 1993; cited from earlier work
[6] = test system: P. berghei; conditions: P. berghei-infected mice; Klayman 1985; cited from earlier work
[7] = test system: P388 leukemia; conditions: NCI Report on NSC 369397; cited from earlier work
[8] = test system: Plasmodium vivax and Plasmodium falciparum; conditions: 2099 cases of malaria, different dosage forms of QHS; 1979 study; cited from earlier work
[9] = test system: P. falciparum; conditions: two Hanian strains; Ye et al. 1983; cited from earlier work
[10] = cited from earlier work

| SMILES | Log10GI50 [1] [M] | Log10LC50 [1] [M] | Log10TGI [1] [M] | Log10GI50 [2] [M] | Log10LC50 [2] [M] | Log10TGI [2] [M] | stability [3] | anticancer activity [4] | ID50 / IC50 (drug concentration causing 50% growth inhibition of the tumor cells) [5] [µM] | SD90 (parasitemia 90 percent suppressed) [6] [mg/kg] | activity against P388 leukemia [7] | clinical outcome [8] | potency in vitro compared with chloroquine [9] | solubility in water [10] |
| --- | --- | --- | --- | --- | --- | --- | --- | --- | --- | --- | --- | --- | --- | --- |
| COC1OC2(C)CCC3CCCC(CCOC(=O)c4cccc(C(=O)OCCC5CCCC6CCC7(C)OOC56C(OC)O7)c4)C31OO2 (centres unmarked) [Compound 10, Trioxane Bis-ester Dimer] | −6.09 | >−4.30 | >−4.30 | −4.53 | >−4.30 | >−4.30 | stable for prolonged periods at room temperature |  |  |  |  |  |  |  |
| C[C@@H]1CC[C@H]2[C@@H](C)C(=O)O[C@@H]3O[C@@]4(C)CC[C@@H]1[C@]32OO4 [QHS, 3,6,9-trimethyl-9,10b-epidioxyperhydropyrano[4,3,2-jk]benzoxepin-2-one, reference compound] | >−4.00 | >−4.00 | >−4.00 |  |  |  |  | very little anticancer activity | 29.8 | 6.20 | inactive | clinical cure of all patients | comparable to that of chloroquine | insolubility in water |
| COC1OC2(C)CCC3CCCC(CCOC(=O)c4ccc(C(=O)OCCC5CCCC6CCC7(C)OOC56C(OC)O7)cc4)C31OO2 (centres unmarked) [Compound 11, Bis-ester Dimer] | −6.02 | >−4.00 | >−4.00 |  |  |  |  |  |  |  |  |  |  |  |
| COC1OC2(C)CCC3CCCC(CCOCCC4CCCC5CCC6(C)OOC45C(OC)O6)C31OO2 (centres unmarked) [Compound 6, Trioxane Ether Dimer] | −6.35 | >−4.00 | >−4.00 |  |  |  |  |  |  |  |  |  |  |  |
| CC(=O)O[C@H]1C(=O)[C@@]2(C)[C@H]([C@H](OC(=O)c3ccccc3)[C@]3(O)C[C@H](OC(=O)[C@H](O)[C@@H](NC(=O)c4ccccc4)c4ccccc4)C(C)=C1C3(C)C)[C@]1(OC(C)=O)CO[C@@H]1C[C@@H]2O [Paclitaxel, paclitaxel, reference compound] | −11.29 | −4.15 | −4.32 | −9.38 | >−4.00 | >−4.00 |  |  |  |  |  |  |  |  |
